pIC50: −log10 of the molar value.
System: HBeAg (surrogate marker for cccDNA) in HepDES19 cells
Assay: Engineered HepDES19 primary screen assay (HBeAg ELISA)
Format: cell-based, HBV
Settings: Hepatitis B virus, HepDES19, 120 h, read-out: IC50 (HBeAg level, HepDES19 primary screen assay), HepDES19 cells, 5 days compound incubation, HBeAg ELISA
Procedure, shortened: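 HepDES19 cells were induced by Tet withdrawal for 8 days, then treated with half-log compound dilutions (1% DMSO final) for 5 days at 37 °C. HBeAg was measured by ELISA as the cccDNA surrogate, viability by CCK-8, and IC50 from a 4-parameter logistic fit.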

With `O=c1cc(-c2ccc(Br)cc2OCCO[C@H]2C[C@@H](C(=O)O)C2)oc2c(Cl)cccc12` [Example C003-A, Cis-3-[2-[5-bromo-2-(8-chloro-4-oxo-chromen-2-yl)phenoxy]ethoxy]cyclobutanecarboxylic acid] the pIC50 was 5.97.
